Test results taken from patent US8541002B2, “Vaccine for treatment and prevention of herpes simplex virus infection” (Agenus Inc., priority 2003, dated 2013).
Where no end group is shown, it is not given here.

Experiment: Turbidity assay for solubility of the peptides
Assay type: physicochemical
Settings: solubility of the antigenic peptides in water or Dimethyl Sulfoxide (DMSO)
Method: A number of antigenic peptides of the invention were synthesized by chemical synthesis as described in Section 5.1.1.
A turbidity assay was used to assess the solubility of the peptides. Turbidity assays used either a Varian Cary double-beam spectrophotometer, or a Molecular Devices Spectromax absorbance plate reader (for high throughput experiments). The spectrophotometer assay read every 2 nm between 340 nm and 360 nm, and averaged the values. Samples were analyzed in duplicate using a quartz micro-cuvette that holds about 200 uL. The plate reader assay used a 96-well plate format that read every 4 nm between 340 nm and 360 nm and averaged those values. Samples in this assay were run in triplicate.

Molecule | Solubility
VNSAETNTHGLAYDVPEGIRRHLRNPKIRRAFTEQ [UL13-2] | water
SRLPPHTQPVFSKRVVMFAWSFLVLKPLELVAAGM [UL20-1] | water
IVGILGCAAVGAAPTGPASDTTNATARLPTHPPLI [US05-2] | water
CSCC[C@H](NC(=O)[C@H](C)N)C(=O)N[C@@H](CO)C(=O)N[C@@H](CCCNC(=N)N)C(=O)N[C@@H](CCCNC(=N)N)C(=O)N[C@@H](Cc1ccc(O)cc1)C(=O)N[C@@H](CC(=O)O)C(=O)N[C@@H](CCCNC(=N)N)C(=O)N[C@@H](C)C(=O)N[C@@H](CCC(N)=O)C(=O)N[C@@H](CCCCN)C(=O)NCC(=O)N[C@@H](Cc1ccccc1)C(=O)N[C@@H](CC(C)C)C(=O)N[C@@H](CC(C)C)C(=O)N[C@H](C(=O)N[C@@H](CO)C(=O)N[C@@H](CC(C)C)C(=O)N[C@@H](CCCNC(=N)N)C(=O)N[C@@H](CCCNC(=N)N)C(=O)N[C@@H](C)C(=O)N[C@@H](Cc1ccc(O)cc1)C(=O)N[C@@H](C)C(=O)N1CCC[C@H]1C(=O)N[C@@H](CC(C)C)C(=O)N[C@@H](CC(C)C)C(=O)N[C@@H](C)C(=O)N[C@@H](CCCNC(=N)N)C(=O)N[C@@H](CCC(=O)O)C(=O)N[C@@H](CC(N)=O)C(=O)N[C@@H](C)C(=O)N[C@@H](C)C(=O)N[C@@H](CC(C)C)C(=O)N[C@H](C(=O)NCC(=O)O)[C@@H](C)O)[C@@H](C)O [RS01-2] | water
VSIIALTELYFILRRGSAPKNAEPAAPRGRSKGWS [UL53-3] | water
VAPACIIAAVLAYYVTWLARALLLYVNIKRDRLPL [UL20-2] | DMSO
CC[C@H](C)[C@H](NC(=O)[C@@H]1CCCN1C(=O)[C@H](CC(C)C)NC(=O)[C@H](Cc1ccc(O)cc1)NC(=O)[C@@H](N)CCCNC(=N)N)C(=O)N[C@@H](C)C(=O)NCC(=O)N[C@H](C(=O)N[C@@H](CO)C(=O)N[C@@H](CO)C(=O)N[C@H](C(=O)N[C@H](C(=O)N[C@@H](C)C(=O)N[C@@H](CC(C)C)C(=O)N[C@@H](C)C(=O)N1CCC[C@H]1C(=O)N[C@@H](Cc1ccc(O)cc1)C(=O)N[C@H](C(=O)N[C@@H](CC(N)=O)C(=O)N[C@@H](CCCCN)C(=O)N[C@H](C(=O)N[C@H](C(=O)N[C@H](C(=O)NCC(=O)N[C@@H](CC(=O)O)C(=O)N[C@@H](CS)C(=O)N[C@@H](CC(C)C)C(=O)N1CCC[C@H]1C(=O)N[C@H](C(=O)N[C@@H](CC(C)C)C(=O)N[C@@H](CC(=O)O)C(=O)N[C@@H](CCSC)C(=O)N[C@@H](CCC(=O)O)C(=O)N[C@H](C(=O)NCC(=O)O)[C@@H](C)O)C(C)C)[C@@H](C)O)C(C)C)[C@@H](C)O)C(C)C)C(C)C)C(C)C)C(C)C [RL02-2] | DMSO
SSDVPSVALLLFPNGTVIHLLAFDTLPIATIAPGF [UL22-3] | DMSO
AAGKRGDSGLLRVCAALSIPKPSEAVRPSRIPRAP [US11-2] | water
GPGASPRLYSVVGPLGRQRLIIEELTLETQGMYYW [UL44-1] | water
PATLIPRAAAKHLAALTRVQAERSSGYWWVNGDGI [UL45-1] | water
DRPPESPGSELYPLNAQALAHLQMLPADHRAFFRT [US10-2] | water
LEVIFPTTDAKLNYLSRTQRLASLLTYAGPIKAPD [UL33-1] | water
CC[C@H](C)[C@H](NC(=O)[C@H](CO)NC(=O)[C@H](CC(=O)O)NC(=O)[C@@H](NC(=O)[C@@H](NC(=O)[C@@H](NC(=O)CNC(=O)[C@H](CCC(N)=O)NC(=O)[C@H](CCC(N)=O)NC(=O)[C@H](Cc1ccc(O)cc1)NC(=O)[C@H](C)NC(=O)[C@H](CCCCN)NC(=O)[C@@H](N)CO)C(C)C)[C@@H](C)O)C(C)C)C(=O)NCC(=O)N[C@@H](CCSC)C(=O)N[C@@H](CC(C)C)C(=O)N1CCC[C@H]1C(=O)N[C@@H](CCCNC(=N)N)C(=O)N[C@@H](Cc1ccccc1)C(=O)N[C@H](C(=O)N1CCC[C@H]1C(=O)N[C@@H](CCC(=O)O)C(=O)N[C@@H](CC(N)=O)C(=O)N[C@@H](CCC(N)=O)C(=O)N[C@@H](CCCNC(=N)N)C(=O)N[C@H](C(=O)N[C@H](C(=O)N[C@@H](C)C(=O)N[C@@H](CC(C)C)C(=O)N[C@@H](Cc1ccc(O)cc1)C(=O)N[C@@H](CO)C(=O)N[C@@H](CC(C)C)C(=O)N[C@@H](CCCCN)C(=O)N[C@H](C(=O)N[C@@H](C)C(=O)O)[C@@H](C)CC)C(C)C)[C@@H](C)O)[C@@H](C)CC [US06-3] | water
CC[C@H](C)[C@H](NC(=O)[C@@H](NC(=O)[C@@H]1CCCN1C(=O)[C@@H](N)CC(=O)O)[C@@H](C)CC)C(=O)NCC(=O)N[C@H](C(=O)N[C@@H](C)C(=O)N[C@@H](C)C(=O)N[C@@H](C)C(=O)N[C@H](C(=O)N[C@@H](CC(C)C)C(=O)N[C@@H](CCC(=O)O)C(=O)N[C@@H](CC(N)=O)C(=O)N[C@@H](CC(C)C)C(=O)N[C@@H](C)C(=O)N[C@H](C(=O)N[C@@H](CCCNC(=N)N)C(=O)N[C@@H](CC(C)C)C(=O)N[C@@H](CCCNC(=N)N)C(=O)N1CCC[C@H]1C(=O)N[C@@H](Cc1ccccc1)C(=O)N[C@@H](CC(C)C)C(=O)N[C@@H](CCC(N)=O)C(=O)N[C@@H](CS)C(=O)N[C@@H](Cc1ccc(O)cc1)C(=O)N[C@@H](CC(C)C)C(=O)N[C@@H](CCCCN)C(=O)N[C@@H](C)C(=O)N[C@@H](CCCNC(=N)N)C(=O)NCC(=O)N[C@@H](CC(C)C)C(=O)N[C@@H](CS)C(=O)NCC(=O)N[C@@H](CC(C)C)C(=O)N[C@@H](CC(=O)O)C(=O)O)[C@@H](C)O)C(C)C)[C@@H](C)O [UL54-1] | water
CC[C@H](C)[C@H](NC(=O)[C@H](CCCCN)NC(=O)[C@@H](N)C(C)C)C(=O)N[C@@H](CCCNC(=N)N)C(=O)N[C@H](C(=O)N[C@@H](CCC(=O)O)C(=O)N[C@@H](CCC(=O)O)C(=O)N[C@@H](CCC(N)=O)C(=O)N[C@@H](C)C(=O)N[C@@H](C)C(=O)N[C@@H](CCCNC(=N)N)C(=O)N[C@@H](CCCNC(=N)N)C(=O)N[C@@H](CC(=O)O)C(=O)N[C@@H](Cc1ccccc1)C(=O)N[C@@H](CC(C)C)C(=O)N[C@H](C(=O)N[C@@H](C)C(=O)N[C@@H](Cc1c[nH]cn1)C(=O)N[C@@H](CCCNC(=N)N)C(=O)N[C@@H](CCCNC(=N)N)C(=O)N[C@@H](Cc1ccc(O)cc1)C(=O)N[C@@H](CC(C)C)C(=O)N[C@@H](CC(=O)O)C(=O)N1CCC[C@H]1C(=O)N[C@@H](C)C(=O)N[C@@H](CC(C)C)C(=O)N[C@@H](CO)C(=O)N[C@@H](CCC(=O)O)C(=O)N[C@@H](CCCNC(=N)N)C(=O)N[C@@H](CC(C)C)C(=O)N[C@@H](CC(=O)O)C(=O)N[C@@H](C)C(=O)N[C@@H](C)C(=O)N[C@@H](CC(=O)O)C(=O)N[C@@H](CC(=O)O)C(=O)O)[C@@H](C)O)C(C)C [UL14-2] | water
CC(C)C[C@H](NC(=O)[C@@H]1CCCN1C(=O)[C@@H](NC(=O)[C@H](CO)NC(=O)[C@H](C)NC(=O)[C@H](CO)NC(=O)[C@H](CO)NC(=O)[C@H](CCCNC(=N)N)NC(=O)[C@@H](NC(=O)[C@H](CO)NC(=O)[C@@H](N)CC(=O)O)C(C)C)C(C)C)C(=O)N[C@@H](Cc1ccc(O)cc1)C(=O)N1CCC[C@H]1C(=O)N[C@@H](C)C(=O)N[C@@H](C)C(=O)N[C@@H](CO)C(=O)N1CCC[C@H]1C(=O)N[C@H](C(=O)N1CCC[C@H]1C(=O)N[C@@H](C)C(=O)N[C@@H](CCC(=O)O)C(=O)N[C@@H](C)C(=O)N[C@@H](Cc1ccc(O)cc1)C(=O)N[C@@H](Cc1ccc(O)cc1)C(=O)N[C@@H](CO)C(=O)N[C@@H](CCC(=O)O)C(=O)N[C@@H](CO)C(=O)N[C@@H](CCC(=O)O)C(=O)N[C@@H](CC(=O)O)C(=O)N[C@@H](CCC(=O)O)C(=O)N[C@@H](C)C(=O)N[C@@H](C)C(=O)N[C@@H](CC(N)=O)C(=O)N[C@@H](CC(=O)O)C(=O)N[C@@H](Cc1ccccc1)C(=O)O)C(C)C [US09-2] | water
